Data as given in the supplement of paper PMC10307832.

Tests used:
Experiment in all cases: relative viability (nuclei count vs DMSO), 5 days (fraction); higher = more cells survive
CX-5461 + Foretinib = compound: Cc1cnc(CNC(=O)c2c(=O)c3ccc(N4CCCN(C)CC4)nc3n3c2sc2ccccc23)cn1 [CX-5461] + COc1cc2c(Oc3ccc(NC(=O)C4(C(=O)Nc5ccc(F)cc5)CC4)cc3F)ccnc2cc1OCCCN1CCOCC1 [Foretinib] (partner 0.25 µM)
Method in brief: (§1)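 Lung cancer cell lines were pin-tool dosed in 1536-well plates on the day after seeding, with either a lone drug or a fixed anchor-drug dose plus five library-drug doses (not always all listed) in √10 steps. Nuclei were counted on 4× images after 5 days. Relative viability is the ratio of treated-well to vehicle-well nuclei counts, with each value a median of duplicate plates.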

CX-5461 + Vorinostat = compound: Cc1cnc(CNC(=O)c2c(=O)c3ccc(N4CCCN(C)CC4)nc3n3c2sc2ccccc23)cn1 [CX-5461] + O=C(CCCCCCC(=O)Nc1ccccc1)NO [Vorinostat] (partner 1 µM)
Method in brief: as §1

IMD-0354 + Trametinib = compound: O=C(Nc1cc(C(F)(F)F)cc(C(F)(F)F)c1)c1cc(Cl)ccc1O [IMD-0354] + CC(=O)Nc1cccc(-n2c(=O)n(C3CC3)c(=O)c3c(Nc4ccc(I)cc4F)n(C)c(=O)c(C)c32)c1 [Trametinib] (partner 0.02 µM)
Method in brief: as §1

IMD-0354 + Navitoclax = compound: O=C(Nc1cc(C(F)(F)F)cc(C(F)(F)F)c1)c1cc(Cl)ccc1O [IMD-0354] + CC1(C)CCC(c2ccc(Cl)cc2)=C(CN2CCN(c3ccc(C(=O)NS(=O)(=O)c4ccc(N[C@H](CCN5CCOCC5)CSc5ccccc5)c(S(=O)(=O)C(F)(F)F)c4)cc3)CC2)C1 [Navitoclax] (partner 0.5 µM)
Method in brief: as §1

| Cell Line | relative viability (CX-5461 + Foretinib; first compound 0.01 µM) | relative viability (CX-5461 + Foretinib; first compound 0.03162 µM) | relative viability (CX-5461 + Foretinib; first compound 0.1 µM) | relative viability (CX-5461 + Foretinib; first compound 0.3162 µM) | relative viability (CX-5461 + Foretinib; first compound 1 µM) | relative viability (CX-5461 + Vorinostat; first compound 0.01 µM) | relative viability (CX-5461 + Vorinostat; first compound 0.03162 µM) | relative viability (CX-5461 + Vorinostat; first compound 0.1 µM) | relative viability (CX-5461 + Vorinostat; first compound 0.3162 µM) | relative viability (CX-5461 + Vorinostat; first compound 1 µM) | relative viability (IMD-0354 + Trametinib; first compound 0.04 µM) | relative viability (IMD-0354 + Trametinib; first compound 0.1265 µM) | relative viability (IMD-0354 + Trametinib; first compound 0.4 µM) | relative viability (IMD-0354 + Trametinib; first compound 1.265 µM) | relative viability (IMD-0354 + Trametinib; first compound 4 µM) | relative viability (IMD-0354 + Navitoclax; first compound 0.04 µM) | relative viability (IMD-0354 + Navitoclax; first compound 0.1265 µM) | relative viability (IMD-0354 + Navitoclax; first compound 0.4 µM) | relative viability (IMD-0354 + Navitoclax; first compound 1.265 µM) | relative viability (IMD-0354 + Navitoclax; first compound 4 µM) |
| --- | --- | --- | --- | --- | --- | --- | --- | --- | --- | --- | --- | --- | --- | --- | --- | --- | --- | --- | --- | --- |
| HCC-15 | 1.11 | 1.02 | 0.978 | 0.895 | 0.591 | 0.926 | 0.882 | 0.818 | 0.834 | 0.768 | 0.387 | 0.35 | 0.335 | 0.269 | 0.146 | 0.659 | 0.652 | 0.362 | 0.297 | 0.166 |
| HCC-44 |  |  |  |  |  | 1.17 | 1.16 | 1.03 | 1.13 | 1.03 | 1.09 | 1.14 | 0.973 | 1.04 | 0.319 | 0.953 | 0.951 | 0.446 | 0.203 | 0.215 |
| HCC-78 | 0.596 | 0.503 | 0.573 | 0.602 | 0.589 | 0.405 | 0.477 | 0.459 | 0.402 | 0.42 | 0.765 | 0.687 | 0.766 | 0.782 | 0.334 | 0.691 | 0.761 | 0.509 | 0.571 | 0.24 |
| HCC-366 | 1.03 | 0.913 | 0.924 | 0.756 | 0.931 | 0.441 | 0.408 | 0.166 | 0.242 | 0.0455 | 0.479 | 0.404 | 0.251 | 0.0603 | 0.0454 | 1.03 | 1.17 | 0.235 | 0.27 | 0.0258 |
| HCC-827 | 1.08 | 1.09 | 1.02 | 1.03 | 1.06 | 0.854 | 0.887 | 0.85 | 0.567 | 0.923 | 0.54 | 0.524 | 0.469 | 0.393 | 0.197 | 0.983 | 0.955 | 0.892 | 0.759 | 0.293 |
| IA-LM | 1.21 | 1.12 | 1.14 | 1.07 | 0.885 | 1 | 0.925 | 1.11 | 0.828 | 1.01 |  |  |  |  |  | 0.778 | 0.662 | 0.381 | 0.122 | 0.0656 |
| LCLC-103H | 0.81 | 0.867 | 0.681 | 1.02 | 0.798 | 0.784 | 0.855 | 0.827 | 0.517 | 0.741 | 0.703 | 0.703 | 0.521 | 0.602 | 0.315 |  |  |  |  |  |
| NCI-H358 | 0.671 | 0.666 | 0.791 | 0.236 | 0.336 | 0.745 | 0.78 | 0.701 | 0.27 | 0.402 | 0.116 | 0.128 | 0.14 | 0.134 | 0.102 |  |  |  |  |  |
| NCI-H522 |  |  |  |  |  | 1 | 1.1 | 0.955 |  | 0.852 | 0.749 | 0.778 | 0.732 | 0.6 | 0.454 |  |  |  |  |  |
| NCI-H650 | 1.07 | 1.02 | 1.01 | 0.977 | 0.932 | 0.462 | 0.294 | 0.635 | 0.399 | 0.312 | 0.987 | 1.07 | 1.05 | 0.681 | 0.232 |  |  |  |  |  |
| NCI-H661 | 0.928 | 0.98 | 0.985 | 0.497 | 0.673 | 0.822 | 0.8 | 0.734 | 0.472 | 0.583 | 0.532 | 0.512 | 0.397 | 0.308 | 0.256 |  |  |  |  |  |
| NCI-H1299 | 1.06 | 1.06 | 1.09 | 1.06 | 1.11 |  |  |  |  |  |  |  |  |  |  | 0.981 | 1.08 | 0.259 | 0.442 | 0.146 |
| NCI-H1563 | 0.88 | 0.826 | 0.806 | 0.826 | 0.569 |  |  |  |  |  |  |  |  |  |  |  |  |  |  |  |
| NCI-H1623 | 0.971 | 0.871 | 0.809 | 0.934 | 0.723 |  |  |  |  |  |  |  |  |  |  |  |  |  |  |  |
| NCI-H1648 |  |  |  |  |  | 0.526 | 0.355 | 0.49 | 0.495 | 0.483 | 0.435 | 0.504 | 0.369 | 0.545 | 0.271 |  |  |  |  |  |
| NCI-H1703 | 0.359 | 0.311 | 0.357 | 0.363 | 0.28 |  |  |  |  |  |  |  |  |  |  | 1.37 | 1.12 | 0.843 | 0.131 | 0.115 |
| NCI-H1792 |  |  |  |  |  |  |  |  |  |  | 0.496 | 0.564 | 0.221 | 0.292 | 0.135 | 0.761 | 0.564 | 1.66 | 0.346 | 0.482 |
| NCI-H2342 | 0.98 | 1.1 | 1.07 | 1.03 | 1.08 | 0.686 | 0.768 | 0.642 | 0.619 | 0.776 | 0.763 | 0.743 | 0.731 | 0.77 | 0.565 |  |  |  |  |  |
| SW 900 | 0.967 | 0.968 | 1.07 | 1.08 | 0.811 | 0.446 | 0.586 |  | 0.637 | 0.359 | 0.711 | 0.639 | 0.599 | 0.154 | 0.212 |  |  |  |  |  |
